Experimental data: paper PMC10716780, “The multistep oxidation of cholesterol to pregnenolone by human cytochrome P450 11A1 is highly processive” (The Journal of Biological Chemistry, 2023)

Key:
human P450 11A1 = target: T1, human P450 11A1 (Homo sapiens, UniProt P05108); assay: Single-turnover kinetics of P450 11A1 with [1,2-3H]-cholesterol (radio-HPLC); format: biochemical; parameters: M A S T R S P R P F N E I P S P G D N; Met-Ala (N-terminal start residues in place of the transit peptide and Ile40) (N); made in house; host or cells: E. coli (P450 11A1 in C41(DE3); Adx and AdR in E. coli)
T1 sequence (P05108 41-521 limits assumed): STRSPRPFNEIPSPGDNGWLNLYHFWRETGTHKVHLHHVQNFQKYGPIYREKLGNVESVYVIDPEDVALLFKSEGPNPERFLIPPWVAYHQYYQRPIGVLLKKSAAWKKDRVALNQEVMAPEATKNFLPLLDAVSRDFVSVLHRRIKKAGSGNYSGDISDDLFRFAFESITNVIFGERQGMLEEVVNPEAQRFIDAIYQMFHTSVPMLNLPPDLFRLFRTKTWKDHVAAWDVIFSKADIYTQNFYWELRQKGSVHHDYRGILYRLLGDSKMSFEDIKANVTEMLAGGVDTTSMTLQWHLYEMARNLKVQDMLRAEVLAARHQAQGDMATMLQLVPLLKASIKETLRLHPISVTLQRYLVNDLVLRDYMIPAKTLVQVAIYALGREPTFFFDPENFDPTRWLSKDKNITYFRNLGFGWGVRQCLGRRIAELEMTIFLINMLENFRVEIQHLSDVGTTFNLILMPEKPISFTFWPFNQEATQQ
T1 sequence (P00257 59-186 partner): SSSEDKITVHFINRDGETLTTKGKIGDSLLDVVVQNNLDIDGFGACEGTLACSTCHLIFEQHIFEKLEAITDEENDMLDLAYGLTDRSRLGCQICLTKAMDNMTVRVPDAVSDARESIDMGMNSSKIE
Procedure: In this reaction, a 5 μM complex of P450 11A1 and 4.5 μM cholesterol was assembled, and Adx was added at either equimolar (low, 5 μM) or 10-fold excess (high, 50 μM) concentrations (along with 10 μM AdR). The complex was diluted 2-fold (with 5 mM NADPH) in the apparatus to initiate the reaction, which was quenched at variable times. The products of the reaction were extracted and quantified by radio-HPLC. […] (The analysis of kinetic modeling is described below.)
P450 11A1 (5 μM) was reconstituted with its redox partners AdR (10 μM) and Adx (5 μM) on ice (10 min) prior to dilution in potassium Hepes buffer (50 mM, pH 7.4) and H2O and the addition of ^3H-cholesterol substrate (4.5 μM, 0.5 Ci/mmol). The concentration of substrate was deliberately kept slightly below the enzyme concentration to ensure that single-turnover conditions were strictly followed. The mixture (0.75 ml) was preincubated (37 °C, 5 min) in a shaking water bath prior to initiation with an equal volume of NADPH solution (5 mM, from a 10 mM stock in 50 mM potassium Hepes buffer, pH 7.4), thus reducing the concentrations of all enzymes and substrate to one-half their starting concentrations. After completing the desired incubation time, an aliquot (200 μl) was removed from the incubation and added to vials containing aqueous HCl (800 μl, 1 M). The quenched reactions were mixed with a vortex device and placed on ice. When the time course was complete, the quenched reactions were mixed with CH2Cl2 (5 ml) to extract reaction products and were centrifuged (10^3g, 5 min, 23 °C) to separate layers, and the organic (bottom) layers were transferred (4 ml) to fresh glass vials. The extraction process was repeated and the two extracts (2 × 4 ml) from each sample were combined to maximize product recovery. Samples (8 ml) were brought to dryness under a stream of nitrogen, and the dried residues were dissolved in CH3OH (75 μl) and transferred to autosampler vials for analysis by radio-HPLC.
Enzyme and NADPH solutions were prepared as described for the benchtop experiments (above) but with the modification that the concentration of Adx was increased to 50 μM (from 5 μM). […] The rapid quench-flow is a rapid mixing device that combines equal volumes (∼19 μl) of two solutions (P450 and NADPH, held at 37 °C) into a central internal chamber to initiate a reaction. After the preset reaction time is completed, the mixture (∼38 μl) is then rapidly combined with a quench solution (1 M HCl, ∼160 μl), expelled from the apparatus, and collected in vials. Utilizing this experimental design, the reaction of enzyme-substrate complex (P450 11A1-Adx-AdR and ^3H-cholesterol) was initiated with NADPH on a variable timescale (0–90 s), pooling five replicates of each time point to maximize sensitivity. The products of each quenched reaction (∼1 ml) were extracted with two volumes (5 ml) of CH2Cl2, brought to dryness, and dissolved in CH3OH as described for the benchtop experiments.
Samples (held at 4 °C) were injected (50 μl) using a Agilent 1100 Series HPLC system on a NovaPak (Waters) octadecylsilane (C18) 3.9 mm × 100 mm (4 μm) column (held at 25 °C) with a flow rate of 1.0 ml min^−1 using a gradient mobile phase of (A) H2O and (B) CH3CN as follows (all in % B, v/v): 0 min, 70%; 10 min, 100%; 35.5 min, 100%; 37 min, 30%; and 40 min, 70%).

bovine P450 11A1 = test system: bovine P450 11A1; parameters: method as in PMID 217878; settings: equilibrium dialysis, bovine P450 11A1 ref 26; cited from earlier work
[1] = 10-fold excess (high) Adx, time 0 s
[2] = 10-fold excess (high) Adx, time 0.25 s
[3] = 10-fold excess (high) Adx, time 0.5 s
[4] = 10-fold excess (high) Adx, time 0.75 s
[5] = 10-fold excess (high) Adx, time 1 s
[6] = 10-fold excess (high) Adx, time 2 s
[7] = 10-fold excess (high) Adx, time 2.5 s
[8] = 10-fold excess (high) Adx, time 3.5 s
[9] = 10-fold excess (high) Adx, time 5 s
[10] = 10-fold excess (high) Adx, time 6 s
[11] = 10-fold excess (high) Adx, time 7.5 s
[12] = 10-fold excess (high) Adx, time 10 s
[13] = 10-fold excess (high) Adx, time 15 s
[14] = 10-fold excess (high) Adx, time 20 s
[15] = 10-fold excess (high) Adx, time 30 s
[16] = 10-fold excess (high) Adx, time 45 s
[17] = 10-fold excess (high) Adx, time 60 s
[18] = 10-fold excess (high) Adx, time 90 s
[19] = second table, headed 10-fold excess (high) Adx, time 0 s
[20] = second table, headed 10-fold excess (high) Adx, time 10 s
[21] = second table, headed 10-fold excess (high) Adx, time 25 s
[22] = second table, headed 10-fold excess (high) Adx, time 50 s
[23] = second table, headed 10-fold excess (high) Adx, time 75 s
[24] = second table, headed 10-fold excess (high) Adx, time 100 s
[25] = second table, headed 10-fold excess (high) Adx, time 200 s
[26] = second table, headed 10-fold excess (high) Adx, time 500 s

| SMILES | concentration in single-turnover reaction (human P450 11A1; [1]) [µM] | concentration in single-turnover reaction (human P450 11A1; [2]) [µM] | concentration in single-turnover reaction (human P450 11A1; [3]) [µM] | concentration in single-turnover reaction (human P450 11A1; [4]) [µM] | concentration in single-turnover reaction (human P450 11A1; [5]) [µM] | concentration in single-turnover reaction (human P450 11A1; [6]) [µM] | concentration in single-turnover reaction (human P450 11A1; [7]) [µM] | concentration in single-turnover reaction (human P450 11A1; [8]) [µM] | concentration in single-turnover reaction (human P450 11A1; [9]) [µM] | concentration in single-turnover reaction (human P450 11A1; [10]) [µM] | concentration in single-turnover reaction (human P450 11A1; [11]) [µM] | concentration in single-turnover reaction (human P450 11A1; [12]) [µM] | concentration in single-turnover reaction (human P450 11A1; [13]) [µM] | concentration in single-turnover reaction (human P450 11A1; [14]) [µM] | concentration in single-turnover reaction (human P450 11A1; [15]) [µM] | concentration in single-turnover reaction (human P450 11A1; [16]) [µM] | concentration in single-turnover reaction (human P450 11A1; [17]) [µM] | concentration in single-turnover reaction (human P450 11A1; [18]) [µM] | concentration in single-turnover reaction (human P450 11A1; [19]) [µM] | concentration in single-turnover reaction (human P450 11A1; [20]) [µM] | also measured |
| --- | --- | --- | --- | --- | --- | --- | --- | --- | --- | --- | --- | --- | --- | --- | --- | --- | --- | --- | --- | --- | --- |
| CC(C)CC[C@@H](O)[C@](C)(O)[C@H]1CC[C@H]2[C@@H]3CC=C4C[C@@H](O)CC[C@]4(C)[C@H]3CC[C@]12C [20R,22R-(OH)2 Chol, (20R,22R)-Cholest-5-ene-3β,20,22-triol] | 0 | 0 | 0.1366 | 0.2407 | 0.2278 | 0.1672 | 0.2051 | 0.184 | 0.1911 | 0.1865 | 0.2095 | 0.1817 | 0.1522 | 0.1106 | 0.03422 | 0 | 0 | 0 | 0 | 0.239 | concentration in single-turnover reaction (human P450 11A1; [21]): 0.1619 µM; concentration in single-turnover reaction (human P450 11A1; [22]): 0.07194 µM; concentration in single-turnover reaction (human P450 11A1; [23]): 0.04787 µM; concentration in single-turnover reaction (human P450 11A1; [24]): 0 µM; concentration in single-turnover reaction (human P450 11A1; [25]): 0 µM; concentration in single-turnover reaction (human P450 11A1; [26]): 0 µM; Kd (bovine P450 11A1): 0.081 µM |
| CC(C)CCC[C@@H](C)[C@H]1CC[C@H]2[C@@H]3CC=C4C[C@@H](O)CC[C@]4(C)[C@H]3CC[C@]12C [Cholesterol] | 4.5 | 4.334 | 4.022 | 3.865 | 3.748 | 3.432 | 3.365 | 3.113 | 2.84 | 2.762 | 2.508 | 1.814 | 1.24 | 0.9421 | 0.6054 | 0.4283 | 0.3162 | 0.26 | 4.5 | 2.794 | time to complete reaction, low Adx (human P450 11A1; 5 μM Adx): 3 min; time to complete reaction, excess Adx (human P450 11A1; 50 μM Adx): 1 min; first-order decay, rate of 22R-hydroxylation (k2), single exponential fit (human P450 11A1; 10-fold (50 μM) excess Adx): 0.09 s⁻¹; concentration in single-turnover reaction (human P450 11A1; [21]): 1.649 µM; concentration in single-turnover reaction (human P450 11A1; [22]): 0.7284 µM; concentration in single-turnover reaction (human P450 11A1; [23]): 0.3322 µM; concentration in single-turnover reaction (human P450 11A1; [24]): 0.1591 µM; concentration in single-turnover reaction (human P450 11A1; [25]): 0 µM; concentration in single-turnover reaction (human P450 11A1; [26]): 0 µM |
| CC(=O)[C@H]1CC[C@H]2[C@@H]3CC=C4C[C@@H](O)CC[C@]4(C)[C@H]3CC[C@]12C [Pregnenolone] | 0 | 0 | 0 | 0.1368 | 0.3142 | 0.6865 | 0.7647 | 1.037 | 1.311 | 1.385 | 1.618 | 2.345 | 2.973 | 3.346 | 3.763 | 4.002 | 4.116 | 4.189 | 0 | 1.241 | concentration in single-turnover reaction (human P450 11A1; [21]): 2.512 µM; concentration in single-turnover reaction (human P450 11A1; [22]): 3.582 µM; concentration in single-turnover reaction (human P450 11A1; [23]): 4.057 µM; concentration in single-turnover reaction (human P450 11A1; [24]): 4.341 µM; concentration in single-turnover reaction (human P450 11A1; [25]): 4.5 µM; concentration in single-turnover reaction (human P450 11A1; [26]): 4.5 µM |
